Test results from US20250154611A1, “SYSTEMS AND METHODS TO DETECT STEM CELL STRESS AND USES THEREOF” (Wayne State University, priority 2014, published 2025).
Read-outs that look alike come from different tables or passages of the source. Where a SMILES comes first, the peptide text is derived from it. The star is where a group is joined. Cbz = O=C(OCc1ccccc1)*

Columns and labels:
TSCs = type: cell-based, mouse; conditions: 7 days
Method: (FIG. 10A) TSCs were incubated for 7 days±FGF4 at 20%, 2%, or 0.5% O2 with the mitochondrial activator DCA. TSCs were cultured for 7 days at 20% O2,±FGF4, and with mitochondrial inhibitors antimycin A or cyanide (FIG. 10B). The cells were then lysed and assayed by qPCR for the relative levels of 5 terminal differentiation markers PL1, PL2, Plf, CtsQ, and synTa. The experiment was repeated 3 times and bars show the average±s.e.m., (a) indicates no significant difference and (b) indicates a significant difference (p<0.05) between TSCs with FGF4 removed without or with mitochondrial agonist or antagonist. Where changes in markers are significant (b), the increase or decrease due to mitochondrial agonist or antagonist is shown above the histogram bar.
RNA isolation and quantitative reverse transcription-PCR (qRT-PCR). […] Briefly, DNase-treated total RNA was isolated following cDNA preparation using QuantiTect Reverse Transcription Kit iScript (Qiagen). Assays were performed using Fast SYBR Green on a System 7500 instrument (Applied Biosystems), and a one-step program for 40 cycles. Each experiment was carried out in triplicate, and all three genes for TSC multipotency were normalized against 18S rRNA.
To test the necessity and sufficiency of mitochondrial function for TSC differentiation, 2 mitochondrial inhibitors and an agonist were used. The mitochondrial activator dichloroacetate (DCA) was tested at 0.5%-20% O2 (FIG. 10A).
Cyanide and antimycin A inhibit COX (part of mitochondrial complex IV) and complex III, respectively, and were used to inhibit the ETC and thus the generation of Δψm for 7 days of culture at optimal differentiation conditions (FIG. 10B).

[1] = test system: mitochondrial membrane potential (ΔΨm)
Method: Mitochondrial staining by MitoTracker dye. TSC were cultured at different O2 levels at least 24 hr stained with DAPI (D21490, Invitrogen) alone or with either MitoTracker Red FM (Invitrogen), TMRM (T668), or JC-1 (T3168, Invitrogen) alone or with the uncoupler FCCP (Sigma), and analyzed under a DM-IRE2 fluorescence microscope (Leica, Germany) using Simple PCI image acquisition software (Hamamatsu, Sewickley, PA).
In more detail, TSC were cultured on coverslips in 12-well plates at different O2 levels either with or without FGF4, for 48 hr. Before experiments were conducted at low O2 tension, TSC were adapted in a hypoxia chamber (Billups-Rothenberg, CA) at the given O2 level described above for at least 24 hr. Nuclear dye 2.5 μg/ml DAPI (D21490, Invitrogen) was applied as a counterstain 1 hr before TSC were incubated alone with either 50 nM MitoTracker Red FM (M22425m, Invitrogen) for 30 min, 20 nM TMRM (T668) for 30 min, or 3.25 nM JC-1 (T3168, Invitrogen) for 45 min, or in combination with the uncoupler FCCP (1 nM, Sigma, C2920). After staining, the TSC were washed with PBS 2 times and immediately analyzed under a DM-IRE2 fluorescence microscope (Leica, Germany) using Simple PCI image acquisition software (Hamamatsu, Sewickley, PA).
The roles of FGF4 and O2 on Δψm associated with ATP production was determined. […]

AKT = target: T1, AKT (Mus musculus, UniProt P31750); assay: phospho-AKT western blot in mESCs under 200 mM sorbitol; type: cell-based; conditions: mESCs, 4 hr, 200 mM sorbitol
T1 construct: endogenous in cells; host or cells: mESC-D3 (ATCC)
Method: (§1) FIG. 14. […] Blots are representative of triplicate experiments. Phospho-proteins and their loading controls are grouped between black lines.
(§2) FIG. 15. […] Blots are representative of triplicate experiments.
(§3) Hyperosmotic activation of signaling enzymes. […] Zhong, 2010; Xie, 2011. […] To determine the kinetics of activation of these five kinases in the described system, mESCs were treated with 200 mM sorbitol for 1 hr. Expression levels of the activated (i.e., phosphorylated) enzymes were assayed by western blot analysis (FIG. 14), including phospho-p38MAPK, phospho-JNK, phospho-MEK1/2, and phospho-AKT (the downstream effector of PI3K signaling).
(§4) Efficacy of enzyme inhibitors.

[2] = test system: Oct4, Nanog, and Rex1 protein in mESCs; assay: Proteasome inhibitor effects on Oct4, Nanog, and Rex1 during sorbitol stimulation of mESCs; type: cell-based, mouse; conditions: 4 hr; for stress-induced loss of Oct4, Nanog, and Rex1: 200 mM sorbitol
Method: FIG. 17. MG132 proteasome inhibitor effects on Oct4, Nanog, and Rex1 during sorbitol stimulation of mESCs. mESCs were treated for 4 hr with 0 or 200 mM sorbitol±10 μM MG132 and then lysed.
FIGS. 18A-18D. Lactacystin effects on Oct4, Nanog, Rex1 during sorbitol stimulation of mESCs. mESCs were treated for 4 hr±200 mM sorbitol±25, 50 μM lactacystin, then photographed before lysing. […] ANOVA+Student-Newman-Keuls post hoc tests, Oct4 p=0.000; Nanog p=0.035; Rex1 p=0.11. FIG. 18D) mESCs were stressed with or without lactacystin and micrographs were taken at 100×. Scale bar=50 μm.
Hyperosmotic-stress-induced loss of potency TFs due to proteasomal degradation. To determine the mechanism of TF protein loss during stress, mESCs were treated with one of two proteasome inhibitors, MG132 (FIG. 17) and lactacystin (FIGS. 18A-18D). […] Oct4 loss was reversed by 75%, Nanog by 93%, and Rex1 by 310% in 4 hr of proteasome inhibition by MG132.

[3] = test system: Oct4, Nanog, and Rex1 expression in mESC; assay: Inhibitor only effects on Oct4, Nanog, and Rex1 expression (western blot); type: cell-based, mouse
ERK1/2 = assay: phospho-ERK1/2 western blot in mESCs under 200 mM sorbitol
Method: Cells were lysed and proteins were fractionated using SDS-PAGE, blotted, and probed for phospho-p38 (Thr180/Tyr182), phospho-JNK (Thr183/Tyr185), phospho-ERK1/2 (Thr202/Tyr204), or phospho-AKT (Ser473). Blots are representative of triplicate experiments.
Western blot analysis. Sodium dodecyl sulfate-polyacrylamide gel electrophoresis and western immunoblot analysis of mESC lysates were performed as previously described. […] Cells were harvested with cold lysis buffer (Cell Signaling) and protein was quantified by BCA assay (Pierce, Rockford, IL). Ten to twenty micrograms of aliquots were fractionated on 10% polyacrylamide precast gels (Bio-Rad, Hercules, CA), transferred to nitrocellulose membranes (Amersham Biosciences, Aylesbury, UK), probed overnight with primary antibodies, and developed as previously described. […] Protein bands were visualized using the ECL Advance Western Blotting Detection Kit (GE Healthcare, Waukesha, WI), blot was scanned to obtain an electronic image, and intensity of protein bands was quantified using Image J analysis software (rsbweb.nih.gov) and normalized to amido black staining. […] Data are expressed as the change in expression relative to no treatment at time zero.

[4] = test system: Oct4, Nanog, and Rex1 expression in mESC; assay: TF expression levels during hyperosmotic stress +/- enzyme inhibition in mESC monolayer culture (western blot)
Method: Histograms show relative expression of each protein when normalized to amido black expression. Error flags represent standard error of the mean (n≥3). “*” denotes significant difference from unstressed mESCs. “a” indicates significant difference from stress-only time point. ANOVA and Student-Newman-Keuls post hoc tests (P<0.05).
(FIG. 20A) mESCs were incubated±200 mM sorbitol for 0-24 hr and ±p38 inhibitor SB202190 (10 μM). mESCs were lysed, and proteins were fractionated using SDS-PAGE, blotted, and probed for Oct4 or Nanog. (FIG. 20B) Phase micrographs of mESCs following 24 hr of culture in the presence/absence of stress and p38MAPK inhibitor, SB202190. Scale bars=50 μm. (FIG. 20C) mESCs were incubated±200 mM sorbitol for 0-24 hr±either U0126 or LY294002 (25 μM). mESCs were lysed and proteins were fractionated using SDS-PAGE, blotted, and probed for Oct4 or Nanog. Histograms show relative expression of each protein when normalized to amido black expression. Error flags represent standard error of the mean (n≥3). “*” denotes significant difference from unstressed mESCs. “a” indicates significant difference from stress-only time point. ANOVA and Student-Newman-Keuls post hoc tests (P<0.05).
(FIG. 21A) mESCs were incubated±200 mM sorbitol for 0-24 hr±(A) p38MAPK inhibitor SB202190 (10 μM) or PI3K inhibitor LY294002 (25 μM); or JNK inhibitor L-JNKi-1 (2 μM). mESCs were lysed, and proteins were fractionated using SDS-PAGE, blotted, and probed for Rex1. Histograms show relative expression of each protein when normalized to amido black expression. Error flags represent standard error of the mean (n≥3). “*” denotes significant difference from unstressed mESCs. “a” indicates significant difference from stress-only time point. ANOVA and Student-Newman-Keuls post hoc tests (P<0.05). (FIG. 21B) To test the reversibility of the Rex1 loss during sorbitol stress, mESCs were incubated−200 mM sorbitol for 0-4 hr and then sorbitol was removed from some dishes for the remaining 20 hr (lane 5). Histogram is representative of two independent experiments.
Cell culture and stimulation. mESC-D3 cells (ATCC, Manassas, VA) were cultured in the absence of feeder cells in Dulbecco's modified Eagle's medium (Gibco, Grand Island, NY) supplemented with 15% mESC-screened fetal bovine serum (HyClone, Logan, UT), 2 mM L-glutamine, 1 mM sodium pyruvate, 1 mM nonessential amino acids, 0.1 mM 2-mercaptoethanol (Sigma), and 1,000 U/mL murine leukemia inhibitory factor (LIF; Millipore, Temecula, CA) on 0.1% gelatin-coated dishes at 37° C. in humidified air with 5% CO2. […] Osmolality was determined by freezing point depression using Advanced Instruments Wide Range Osmometer 3W2 (Advanced Instruments, Norwood, MA).
Enzyme inhibition. Enzyme inhibitors were chosen according to the specificity reported in the kinase inhibitor literature. […] Inhibitor concentrations were determined following dose response experiments for each inhibitor based on the range of concentrations determined from the mESC and kinase inhibitor literature.

p38MAPK = p38MAPK (Mus musculus, UniProt P47811); assay: phospho-p38 western blot in mESCs under 200 mM sorbitol; type: cell-based
Method: as §1, §2, §3, §4

[5] = test system: Trophoblast stem cells (TSCs); assay: qPCR of lineage and multipotency markers in TSCs with or without SAPK inhibitors at 20, 2 or 0.5% O2; type: cell-based, mouse; conditions: TSCs + FGF4, 0.5-20% O2
Method: FIGS. 1A-1C. SAPK mediates decreased Gcm1 and Tpbpa and increased Hand1 at all O2 levels. There are greater effects as O2 deviates from the stemness optimum of 2% O2. Trophoblast stem cells (TSCs) were passaged and cultured at 20, 2, or 0.5% O2 overnight. FGF4 was replenished the next day at time zero, and SAPK inhibitor SP600125 (10 μm or 50 μM) was co-incubated with TSCs for 2 days at the indicated O2 levels±SP600125. Markers were quantitated using qPCR. (FIG. 1B) is a graph derived from data in (FIG. 1A), where the highest inhibited group was subtracted from the uninhibited group at each O2 level (the subtracted difference is shown as a color inset in the histogram bars of highest expression of each marker). […]
FIG. 2. […] RNA was isolated and quantitated using qPCR.
Cell lines and culture conditions. […] Quantitative removal of gas phase O2 requires 30 min in anaerobic bags, i.e., there was only a minimal period when 20% O2 was ambient to media that was pre-equilibrated under 0, 0.5, or 2% O2. […]
RNA isolation and quantitative reverse transcription-PCR (qRT-PCR). […] Briefly, DNase-treated total RNA was isolated following cDNA preparation using QuantiTect Reverse Transcription Kit […] (Qiagen). […]

[6] = 4 hr, 200 mM sorbitol + PD98059
[7] = 20% O2, FGF4 removed, sublethal concentration

Sequence of p38MAPK (P47811 whole entry): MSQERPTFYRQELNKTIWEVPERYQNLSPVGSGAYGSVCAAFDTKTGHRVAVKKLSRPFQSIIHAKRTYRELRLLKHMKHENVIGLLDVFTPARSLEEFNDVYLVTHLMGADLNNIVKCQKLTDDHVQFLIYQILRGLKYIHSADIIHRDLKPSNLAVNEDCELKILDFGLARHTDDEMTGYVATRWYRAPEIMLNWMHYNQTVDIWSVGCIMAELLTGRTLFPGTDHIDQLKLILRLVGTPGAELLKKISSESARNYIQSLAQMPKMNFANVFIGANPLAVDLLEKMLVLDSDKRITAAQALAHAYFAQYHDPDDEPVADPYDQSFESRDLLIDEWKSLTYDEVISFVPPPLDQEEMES
T1 sequence (P31750 whole entry): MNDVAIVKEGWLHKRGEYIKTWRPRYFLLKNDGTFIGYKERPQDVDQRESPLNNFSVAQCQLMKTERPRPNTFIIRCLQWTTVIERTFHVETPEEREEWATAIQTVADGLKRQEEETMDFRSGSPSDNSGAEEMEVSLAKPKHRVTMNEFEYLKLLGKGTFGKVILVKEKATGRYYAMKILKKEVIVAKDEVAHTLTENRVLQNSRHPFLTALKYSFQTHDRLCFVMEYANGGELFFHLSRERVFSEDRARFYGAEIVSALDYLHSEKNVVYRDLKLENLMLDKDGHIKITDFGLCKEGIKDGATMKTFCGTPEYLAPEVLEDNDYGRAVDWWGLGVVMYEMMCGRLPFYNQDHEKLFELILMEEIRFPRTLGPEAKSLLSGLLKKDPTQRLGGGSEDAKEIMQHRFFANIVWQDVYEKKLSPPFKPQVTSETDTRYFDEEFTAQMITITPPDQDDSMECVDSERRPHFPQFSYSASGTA

With O=C(O)C(Cl)Cl [DCA, dichloroacetate] the “PL2 mRNA increase” value (TSCs; 2% O2) was 2 fold and the “synTa mRNA increase” value (TSCs; 2% O2) was 2 fold.
For N#CC(C#N)=NNc1ccc(OC(F)(F)F)cc1 [FCCP, Carbonyl cyanide 4-(trifluoromethoxy)phenylhydrazone], the JC1 stain fluorescence [1] was “no fluorescence” and the “effect on Δψm” value [1] was “completely depolarizes”.
O=c1cc(N2CCOCC2)oc2c(-c3ccccc3)cccc12 [LY294002] was tested, and the “inhibition of AKT activation (average)” value (AKT) was 88%.
For CC(C)C[C@@H](C=O)NC(=O)[C@H](CC(C)C)NC(=O)[C@H](CC(C)C)NC(=O)OCc1ccccc1 [MG132] (Cbz-Leu-Leu-Leu-aldehyde), the “reversal of stress-induced Nanog loss” value ([2]; 10 μM MG132, 200 mM sorbitol) was 93%, the “reversal of stress-induced Oct4 loss” value ([2]; 10 μM MG132, 200 mM sorbitol) was 75% and the “reversal of stress-induced Rex1 loss” value ([2]; 10 μM MG132, 200 mM sorbitol) was 310%. The “stress-induced loss of Oct4, Nanog, and Rex1” value [2] was “prevented”.
With COc1cccc(-c2cc(=O)c3ccccc3o2)c1N [PD98059] the “Nanog protein expression, inhibitor only” value ([3]; 24 hr inhibitor only, vs 24 hr no inhibitor, AKTi 10, LY294002 10, L-JNKi-1 2, SB202190 10, U0126 40, PD98059 20 μM) was “*1.54 ± 0.10%”, the “inhibition of ERK1/2 activation (average)” value (ERK1/2; mESCs, 4 hr, 200 mM sorbitol) was 30% and the “Nanog expression relative to unstressed level” value [4, 6] was 2.5 times. For the same compound, the “expression of Oct4 and Rex1” value [4, 6] was “remained at the unstressed baseline” and the Oct4 recovery ([4]; 24 hr, 200 mM sorbitol + inhibitor) was “did not prevent”.
Oc1ccc(-c2nc(-c3ccncc3)c(-c3ccc(F)cc3)[nH]2)cc1 [SB202190] was tested, and the “inhibition of p38MAPK activation (average)” value (p38MAPK) was 60%, the Nanog expression ([4]; 24 hr ongoing stress, 200 mM sorbitol + SB202190) was 10% and the Oct4 expression ([4]; 24 hr, 200 mM sorbitol + SB202190, did not recover from 4-h nadir) was 50 % of unstressed levels.
Oc1c2ccccc2c2c3c(cccc13)N=N2 [SP600125] was tested, and the “multipotency factors Cdx2, Id2, Errβ mRNA” value [5] was “no effect”.
For N#CC(=C(/N)Sc1ccccc1N)/C(C#N)=C(\N)Sc1ccccc1N [U0126], the “Nanog protein expression, inhibitor only” value [3] was 0.94 ± 0.15%, the “Oct4 protein expression, inhibitor only” value [3] was 1.16 ± 0.31% and the “Rex1 protein expression, inhibitor only” value [3] was 0.72 ± 0.06%. The “inhibition of ERK1/2 activation (average)” value (ERK1/2) was 87%, the “Oct4 or Nanog loss during stress” value [4] was “did not prevent” and the Oct4 recovery [4] was “prevented”. For the same compound, the Rex1 expression [4] was “remained at unstressed levels”.
With CC(=O)N[C@@H](CSC(=O)[C@]1([C@@H](O)C(C)C)NC(=O)[C@H](C)[C@@H]1O)C(=O)O [lactacystin] the “stress-induced loss of Oct4, Nanog, and Rex1” value [2] was “prevented”.
In the case of antimycin A, the “Ctsq mRNA inhibited” value (TSCs; [7]) is reported as 81%, the “PL2 mRNA inhibited” value (TSCs; [7]) is reported as 98% and the “synTa mRNA inhibited” value (TSCs; [7]) is reported as 42%.
